Laboratory results from PubChem BioAssay (NCI).
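Values below derive from 48-hour exposures of cells grown in 96-well plates, with endpoints linearly interpolated between the two concentrations bracketing the appropriate inhibition level. TGI is the concentration that stops growth completely.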

Tests used:
Test in all cases: NCI tumour cell line growth inhibition, 48 h
[1] = test system: 786-0 renal
[2] = test system: A549 NSCLC
[3] = test system: ACHN renal
[4] = test system: CAKI-1 renal
[5] = test system: COLO 205 colon
[6] = test system: DLD-1 colon
[7] = test system: DMS 114 small cell lung
[8] = test system: DMS 273 small cell lung
[9] = test system: EKVX NSCLC
[10] = test system: HCT-116 colon
[11] = test system: HCT-15 colon
[12] = test system: HOP-92 NSCLC
[13] = test system: HT29 colon
[14] = test system: IGROV1 ovarian
[15] = test system: K-562 leukemia
[16] = test system: KM12 colon
[17] = test system: KM20L2 colon
[18] = test system: LXFL 529 NSCLC
[19] = test system: M14 melanoma
[20] = test system: M19-MEL melanoma
[21] = test system: MALME-3M melanoma
[22] = test system: MOLT-4 leukemia
[23] = test system: NCI-H226 lung
[24] = test system: NCI-H23 lung
[25] = test system: NCI-H460 lung
[26] = test system: OVCAR-3 ovarian
[27] = test system: OVCAR-4 ovarian
[28] = test system: OVCAR-5 ovarian
[29] = test system: OVCAR-8 ovarian
[30] = test system: RPMI-8226 leukemia
[31] = test system: RXF 393 renal
[32] = test system: SF-295 CNS
[33] = test system: SF-539 CNS
[34] = test system: SK-MEL-2 melanoma
[35] = test system: SK-MEL-28 melanoma
[36] = test system: SK-MEL-5 melanoma
[37] = test system: SK-OV-3 ovarian
[38] = test system: SN12C renal
[39] = test system: SNB-75 CNS
[40] = test system: SNB-78 CNS
[41] = test system: SR leukemia
[42] = test system: SW-620 colon
[43] = test system: TK-10 renal
[44] = test system: U251 CNS
[45] = test system: UACC-257 melanoma
[46] = test system: UACC-62 melanoma
[47] = test system: XF 498 CNS
[48] = test system: A498 renal
[49] = test system: HCC-2998 colon
[50] = test system: HL-60(TB) leukemia
[51] = test system: HOP-62 NSCLC
[52] = test system: LOX IMVI melanoma
[53] = test system: NCI-H522 lung
[54] = test system: SF-268 CNS
[55] = test system: SNB-19 CNS
[56] = test system: UO-31 renal
[57] = test system: CCRF-CEM leukemia

Measured: TGI

COC(=O)c1cc(OC(C)=O)c2c(OC)ccc(OC)c2c1
> 100 µM: [1] | [2] | [3] | [4] | [5] | [6] | [7] | [8] | [9] | [10] | [11] | [12] | [13] | [14] | [15] | [16] | [17] | [18] | [19] | [20] | [21] | [22] | [23] | [24] | [25] | [26] | [27] | [28] | [29] | [30] | [31] | [32] | [33] | [34] | [35] | [36] | [37] | [38] | [39] | [40] | [41] | [42] | [43] | [44] | [45] | [46] | [47]

[N-]=[N+]=Nc1ccccc1Oc1ccccc1
> 100 µM: [1] | [48] | [2] | [3] | [4] | [5] | [6] | [7] | [8] | [9] | [49] | [10] | [11] | [50] | [51] | [13] | [14] | [15] | [16] | [17] | [52] | [18] | [19] | [20] | [22] | [23] | [24] | [25] | [53] | [26] | [27] | [28] | [29] | [30] | [54] | [32] | [33] | [34] | [35] | [36] | [37] | [38] | [55] | [39] | [40] | [41] | [42] | [43] | [44] | [45] | [46] | [56] | [47]

C=CC1(CC)/C(=N\O)C(CC)(CC)C(=O)N1O (centres undefined)
> 100 µM: [1] | [48] | [2] | [3] | [4] | [57] | [5] | [6] | [7] | [8] | [9] | [49] | [10] | [11] | [50] | [51] | [12] | [13] | [14] | [15] | [16] | [17] | [52] | [18] | [19] | [20] | [21] | [22] | [23] | [24] | [25] | [53] | [26] | [27] | [28] | [29] | [30] | [31] | [32] | [33] | [34] | [35] | [36] | [37] | [38] | [55] | [39] | [40] | [41] | [42] | [43] | [44] | [45] | [46] | [56] | [47]

O=C1C2c3[nH]c4ccccc4c3C3CCCC3C2C(=O)N1c1ccccc1 (centres undefined)
> 100 µM: [1] | [48] | [2] | [3] | [57] | [5] | [6] | [7] | [8] | [9] | [49] | [11] | [13] | [14] | [15] | [16] | [52] | [18] | [19] | [20] | [21] | [22] | [24] | [25] | [26] | [27] | [29] | [30] | [31] | [54] | [32] | [33] | [35] | [36] | [37] | [38] | [39] | [40] | [41] | [42] | [43] | [44] | [46] | [47]

COc1ccc(C2C(Cl)C(=O)N2NC(=O)c2ccc(N)cc2)cc1 (centres undefined)
> 100 µM: [1] | [48] | [2] | [3] | [4] | [57] | [5] | [6] | [7] | [8] | [9] | [49] | [10] | [11] | [50] | [51] | [12] | [13] | [14] | [15] | [16] | [17] | [52] | [18] | [19] | [20] | [21] | [22] | [23] | [24] | [25] | [53] | [26] | [27] | [28] | [29] | [30] | [32] | [33] | [34] | [35] | [36] | [37] | [38] | [55] | [39] | [40] | [42] | [43] | [44] | [45] | [46] | [56] | [47]
